Measurements reported in patent US20260209218A1, “3-PHENYLQUINAZOLINONES AS NOVEL ANTI-CANCER THERAPY” (HELMHOLTZ ZENTRUM MÜNCHEN - DEUTSCHES FORSCHUNGSZENTRUM FÜR …, priority 2022, published 2026).
Each block holds one compound with its values, some of them ahead of it.

Tests used:
[1] = biological target: T1, hFSP1 (Homo sapiens, UniProt Q9BRQ8); experiment: Dose-response of screening hits, cell survival by Aquabluer in hFSP1 GPX4 KO cells; assay type: cell-based; details: FSP1 overexpressing cells lacking GPX4
T1 construct: expressed in transfected cells; host or cells: Gpx4 KO isogenic fibroblasts (Pfa1, mouse) overexpressing hFSP1
T1 sequence (Q9BRQ8 1-373): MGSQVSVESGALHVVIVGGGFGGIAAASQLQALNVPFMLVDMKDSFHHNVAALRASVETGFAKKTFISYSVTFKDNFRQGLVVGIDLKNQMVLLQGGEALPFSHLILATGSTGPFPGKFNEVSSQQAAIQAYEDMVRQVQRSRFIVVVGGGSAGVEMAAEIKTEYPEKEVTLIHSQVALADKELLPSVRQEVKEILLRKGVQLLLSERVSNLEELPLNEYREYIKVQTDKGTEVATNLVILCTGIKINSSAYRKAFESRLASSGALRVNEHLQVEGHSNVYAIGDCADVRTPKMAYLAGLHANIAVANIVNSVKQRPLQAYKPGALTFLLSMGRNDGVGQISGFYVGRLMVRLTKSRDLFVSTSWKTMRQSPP
Procedure: To identify new small molecule inhibitors that induce ferroptosis in FSP1 overexpressing cells lacking GPX4, hFSP1 GPX4 KO as well as FSP1 GPX4 wild type (WT) isogenic fibroblasts were screened using a subtractive high throughput screening (HTS) approach. As such, both cell lines were plated in parallel and screened against HMGU libraries at a fixed concentration of 10 μM. Cell survival was evaluated using the LIVE/DEAD assay Aquabluer. The percentage (%) of viable cells was determined for both wild type (WT) and knockout (KO) cell lines. Hits were considered as compounds that induce ferroptosis in KO but not in WT cells. Subsequently, positive hits were assayed in a dose-response manner to establish EC50 values of respective compounds (see Table 2).

[2] = test system: Pfa1 Gpx4^KO cells overexpressing FSP1; experiment: Cell viability assay (AquaBluer), ferroptosis induction; assay type: cell-based; details: FIG. 1A; rescued by liproxstatin-1
Procedure: (§1) Cells were seeded on 96-well plates and cultured overnight. On the next day, the medium was changed to medium containing following compounds: RSL3, ML210, erastin, FIN56, FINO2, BSO, iFSP1, icFSP1, Lip-1, DFO, Fer-1, zVAD, Nec-1s, MCC950, olaparib, STS, TNFa, Smac mimic or nigericin at the indicated concentrations. For TAM and Dox treatment, cells were seeded with compounds at the same time. Cell viability was determined 1 h (for nigericin), 24-48 h (for RSL3, ML210, erastin, FIN56, FINO2, iFSP1, icFSP1, STS, TNFa, Smac mimic, and zVAD) or 72 h (for BSO, icFSP1, TAM, and Dox) after the treatment using AquaBluer (MultiTarget Pharmaceuticals, Cat #6015) as an indicator of viable cells according to the manufacturer's protocols. For apoptosis induction, HT-1080 cells were incubated with different concentrations of STS for 24 h. For necroptosis induction, HT-29 cells were incubated with different concentrations of TNFa with Smac mimic (400 nM), and zVAD (30 μM) for 24 h. […] As readout fluorescence was measured at Ex/Em=540/590 nm using a SpectraMax M5 microplate reader with SoftMax Pro v7 (Molecular devices) after 4 hours of incubation in normal cell culture conditions. The relative cell viability (%) was calculated as follows: (fluorescence (FL) of samples−background)/(FL of appropriate control samples−background)×100.

[3] = test system: HT-1080 wild type cells; experiment: as above; assay type: cell-based, human; details: FIG. 1B; rescued by liproxstatin-1
Procedure: as §1

[4] = Microsomal stability, mouse liver microsomes; assay type: in vitro ADME; details: Balb/c, pH 7.4, 0.42 mg microsomal protein per ml, 37° C., five time points over 40 minutes
Procedure: (§2) The objective of this study was to determine metabolic stability of 4 test articles and reference compounds in human and mouse liver microsomes at five time points over 40 minutes using HPLC-MS. Metabolic stability is defined as the percentage of parent compound lost over time in the presence of a metabolically active test system.
(§3) Microsomal incubations were carried out in 96-well plates in 5 aliquots of 30 μL each (one for each time point). Liver microsomal incubation medium comprised of phosphate buffer (100 mM, pH 7.4), MgCl2 (3.3 mM), NADPH (3 mM), glucose-6-phosphate (5.3 mM), glucose-6-phosphate dehydrogenase (0.67 units/ml) with 0.42 mg of liver microsomal protein per ml. In the control reactions, the NADPH-cofactor system was substituted with phosphate buffer. Test compounds (2 μM, final solvent concentration 1.6%) were incubated with microsomes at 37° C., shaking at 100 rpm. Five time points over 40 minutes were analyzed. The reactions were stopped by adding 5 volumes of acetonitrile with internal standard to incubation aliquots, followed by protein sedimentation by centrifuging at 5500 rpm for 5 minutes. Each reaction was performed in duplicates. Supernatants were analyzed using the HPLC system coupled with a tandem mass spectrometer.
(§4) The elimination constant (kel), half-life (t1,2), and intrinsic clearance (Clint) were determined in a plot of In(AUC) versus time, using linear regression analysis:^1

[5] = Pharmacokinetics after a single intraperitoneal dose, plasma by LC-MS/MS; assay type: in vivo, male Balb/cAnN mice; details: mouse, IP, 10 mg/kg
Procedure: The purpose of this study was to determine the pharmacokinetic characteristics of compound 13 in male Balb/cAnN mice following intraperitoneal (IP) administration. Levels of the test compound were determined by LC-MS/MS in the blood plasma samples over time after a single dose.
Study design, animal selection, handling and treatment were all in accordance with the Enamine PK study protocols and Institutional Animal Care and Use Guidelines (BACUC approval number #HC-PK-10112023). Animal treatment and samples preparation were conducted by the Animal Laboratory personnel at Enamine/Bienta. Male Balb/cAnN mice (10 weeks old, body weight ranged from 19.6 g to 23.3 g and average body weight across all groups 21.0 g, SD=0.9 g) were used in this study. The animals were randomly assigned to the treatment groups before the pharmacokinetic study; all animals were fasted for 4 h before dosing. Six sampling time points (5, 15, 30, 60, 120, and 360 min) were set for this pharmacokinetic study. Each of the time point treatment group included 4 animals. There was also a control group of one vehicle-dosed animal. Dosing was done according to the treatment Schedules outlined in Table 5. Mice were injected IP with 2,2,2-tribromoethanol at the dose of 150 mg/kg prior to drawing the blood. Blood collection was performed from the orbital sinus in microtainers containing K3EDTA. Animals were sacrificed by cervical dislocation after the blood samples collection. Blood samples were centrifuged for 10 min at 3000 rpm. All samples were immediately processed, flash-frozen and stored at −70° C. until subsequent analysis.
Plasma samples (40 μl) were mixed with 200 μl of IS(90) solution. After mixing by pipetting and centrifuging for 4 min at 6000 rpm, 0.25 μl of each supernatant was injected into LC-MS/MS system.
Analyses of plasma samples were conducted by the Bioanalytical Laboratory personnel at Enamine/Bienta. The concentrations of 13 in samples were determined using high performance liquid chromatography/tandem mass spectrometry (HPLC-MS/MS). Shimadzu HPLC system comprised 2 isocratic pumps LC-10ADvp, an autosampler SIL-20AC, a sub-controller FCV-14AH and a degasser DGU-14A. Mass spectrometric analysis was performed using an API 3000 (triple-quadrupole) instrument from AB Sciex (Canada) with an electro-spray (ESI) interface. The data acquisition and system control were performed using Analyst 1.6.3 software from AB Sciex.
The concentrations of the test compound below the lower limit of quantitation (LLOQ=100 ng/ml) were designated as zero. The pharmacokinetic data analysis was performed using noncompartmental, bolus injection or extravascular input analysis models in WinNonlin 5.2 (PharSight). Data below LLOQ were presented as missing to improve the validity of T½ calculations.

[6] = Microsomal stability, human liver microsomes; assay type: in vitro ADME; details: pH 7.4, 0.42 mg microsomal protein per ml, 37° C., five time points over 40 minutes
Procedure: as §2, §3, §4

[7] = test system: H460 GPX4 KO cells (a human lung cancer cell line); experiment: Xenograft subcutaneous tumor model, H460; assay type: in vivo, Athymic Nude mice; details: FIG. 11C; 50 mg/kg i.p. twice per day from day 8
Procedure: For the xenograft subcutaneous tumor experiments, GPX4^KO H460 cells (5×10^6 cells in 100 μL PBS) were injected subcutaneously into the right flanks of 6-week-old female athymic nude mice. After tumors reached a size of approximately 100 mm^3, mice were randomized and treated with vehicle or icFSP1 (50 mg/kg, Intonation) by i.p. injections twice per day.
(§5) icFSP1 was dissolved in 45% PEG E 300 (Sigma, Cat #91462-1 KG) and 55% PBS (Gibco, Cat #14190094). Tumors were measured by caliper every day and tumor volume was calculated by the following formula: Tumor volume=length×width^2×0.52. When tumor sizes were either larger than 1000 mm^3 at measurement or tumors became necrotic, these tumors were considered to be human endpoints. When tumors became human endpoints, the experiment was stopped at that point and no further experiments were conducted.

[8] = test system: GPX4 KO human melanoma cells (A375); experiment: Xenograft subcutaneous tumor model, A375; assay type: in vivo, nude mice; details: FIG. 3B; treatment from day 3 post implantation, 50 mg/kg i.p.
Procedure: For the xenograft subcutaneous tumor experiments, GPX4^KO A375 cells (5×10^6 cells in 100 μL PBS) were injected subcutaneously into the right flank of 7-week-old female athymic nude mice. After tumors reached a size of approximately 25-100 mm^3, mice were randomized and treated with vehicle or icFSP1 (50 mg/kg, Intonation) by i.p. injections twice per day for the first 4 days and afterward once daily.
as §5

[9] = test system: Gpx4 KO/Fsp1KO double mutant murine melanoma cells (B16F10) reconstituted with human FSP1; experiment: Syngeneic subcutaneous tumor model; assay type: in vivo, C57BL6/J mice
Procedure: All mice were obtained from Charles River. For the syngeneic subcutaneous tumor experiments, Gpx4^KO/Fsp1^KO 1B16F10 cells stably overexpressing hFSP1-HA (1×10^6 cells in 100 μL PBS) were injected subcutaneously into the right flank of 7-week-old female C57BL6/J mice. After tumors reached a size of approximately 25-50 mm^3, mice were randomized and treated with vehicle or icFSP1 (50 mg/kg, Intonation) by i.p. injections twice per day for 4-5 days. For generating tumor samples for staining, Gpx4^KO/Fsp1^KO 1B16F10 cells stably expressing hFSP1-WT-HA or hFSP1-Q319K-HA (1×10^6 cells in 100 μL PBS) were injected subcutaneously into the right flank of 7-week-old female C57BL6/J mice. After tumors reached a size of approximately 50-150 mm^3, mice were treated with vehicle or icFSP1 (50 mg/kg, Intonation) by i.p. injections twice per day for 3 days.
as §5

[10] = test system: WT hFSP1 or its mutants S187C, L217R and Q319K; experiment: Saturation transfer difference (STD) NMR; assay type: binding; details: FIG. 9; 5 μM recombinant human FSP1, 100-fold molar excess of compound, 10° C.
Procedure: Saturation transfer difference (STD) experiments were performed at Bruker Avance III HD spectrometer at 600 MHz ^1H frequency using a H/N/C triple resonance cryogenic probe. Spectra were recorded at 10° C. with 5 μM recombinant human FSP1 (mutant) and 100-fold molar excess of icFSP1 in phosphate-buffer saline with additional 150 mM NaCl, 1% (v/v) DMSO-d6 and 10% (v/v) D2O for deuterium-lock. Saturation time was 2.5 sec and on- and off-frequencies were 0.68 and −17 ppm, respectively. NMR spectra were processed using Topspin 4.0.6 (Bruker).

Structure (SMILES): COc1cc(CC(=O)Nc2ccc(-n3c(C)nc4ccccc4c3=O)cc2)cc(OC)c1OC [Compound 1]
EC50 [1]: < 1000 nM
ferroptosis induction (cell death, AquaBluer) [2]: efficiently induces ferroptosis
ferroptosis induction (cell death, AquaBluer) [3]: efficiently induces ferroptosis

Structure (SMILES): COc1cc(CC(=O)Nc2ccc(-n3c(C)nc4ccccc4c3=O)cc2)cc(OC)c1OC [icFSP1]
tumor growth [7]: inhibits tumor growth in vivo
tumor growth [8]: inhibited tumor growth in both human and mouse tumors significantly
tumor growth (tumor volume, tumor weight) ([9]; FIG. 3A, treatment from day 6 post implantation, 50 mg/kg i.p. twice per day): inhibited tumor growth in both human and mouse tumors significantly
tumor growth, hFSP1 WT versus FSP1-Q319K expressing cells ([9]; FIG. 10E, 50 mg/kg i.p. twice per day from day 6): inhibits tumor growth of hFSP1 WT but not of FSP1-Q319K expressing cells
binding by STD spectra [10]: show binding of icFSP1

Now from value to compound, other results behind:

microsomal CLint at 2 μM [4]: 6 µL/min/mg
plasma concentration relative to the EC50 value ([5]; based on the total drug concentration): 10 fold
Cmax ([5]; male, Balb/cAnN, plasma): 10200 ng/mL
Tmax ([5]; male, Balb/cAnN, plasma): 15 min
AUC(0-t) ([5]; male, Balb/cAnN, plasma, read-out: AUC0→t = 60 min (AUClast) (converted)): 30000 ng·h/mL
AUC(0-inf) ([5]; male, Balb/cAnN, plasma, read-out: AUC0→∞ (AUCINF_obs) (converted)): 33500 ng·h/mL
MRT inf ([5]; male, Balb/cAnN, plasma, read-out: MRT (MRTinf) (converted)): 2.52 h
MRT last ([5]; male, Balb/cAnN, plasma, read-out: MRT (MRTlast) (converted)): 1.78 h
half-life ([5]; male, Balb/cAnN, plasma, read-out: T1/2 (HL_Lambda_z)): 114 min
Kel (Lambda_z) ([5]; plasma): 0.00608 min⁻¹
microsomal CLint at 2 μM [6]: 12 µL/min/mg
Structure (SMILES): Cc1nc2ccccc2c(=O)n1-c1ccc(NC(=O)Cc2ccccc2)cc1 [Compound 13, N-(4-(2-methyl-4-oxoquinazolin-3(4H)-yl)phenyl)-2-phenylacetamide]
EC50 [1]: > 1000 nM

microsomal CLint at 2 μM [4]: 7 µL/min/mg
microsomal CLint at 2 μM [6]: 7 µL/min/mg
Structure (SMILES): Cc1nc2cc(F)c(F)cc2c(=O)n1-c1ccc(NC(=O)Cc2ccc(C(F)(F)F)cc2)cc1 [Compound 74]
EC50 [1]: < 1000 nM

microsomal CLint at 2 μM [4]: 15 µL/min/mg
microsomal CLint at 2 μM [6]: 4 µL/min/mg
Structure (SMILES): Cc1nc2cc(F)c(F)cc2c(=O)n1-c1ccc(NC(=O)Cc2ccccc2)cc1 [Compound 82]
EC50 [1]: < 1000 nM
